{
  "source": "paper PMC4502317",
  "about": "“Two helices in the third intracellular loop determine anoctamin 1 (TMEM16A) activation by calcium” (Pflugers Archiv, 2014)",
  "molecules": {"B1": {"name": "reference helix peptide of ANO1 (651-NLFEIGIPKMKKFIRYLKLRR-671) (peptide)", "peptide": "NLFEIGIPKMKKFIRYLKLRR", "notes": "source: synthetic peptide"}},
  "key": {"[1]": {"assay": "Circular dichroism spectroscopy of reference helix peptides", "type": "physicochemical", "experimental": "To confirm whether the reference helix of ANO1 forms an α-helix, circular dichroism spectroscopy was performed with synthetic peptides spanning the reference helix regions of ANO1 (652-LFEIGIPKMKKFIRYLKL-669) and ANO2 (604-IFEIGVPKLKKLFRKLKD-621)."}, "[2]": {"tested_on": "biotinylated Ca^2+ sensor helix peptide of ANO1 (692-NLEPFAGLTPEYMEM-706)", "assay": "Surface plasmon resonance, binding to immobilized Ca^2+ sensor helix peptide", "set-up": "species or system mouse", "experimental": "According to the gating hypothesis, physical binding of the two helices and the interference of Ca^2+ in this interaction are key determinants for gating ANO1. To investigate this relationship, physical interaction between the two helices was measured using surface plasmon resonance. A peptide segment (692-NLEPFAGLTPEYMEM-706) spanning the Ca^2+ sensor helix of ANO1 was synthesized, biotinylated at the N-terminus, and immobilized on a streptavidin-coated gold sensor chip. Subsequently, a synthetic peptide spanning the reference helix (651-[…]-671) was passed over the immobilized Ca^2+ sensor helix.\nA Biacore 3000 was used for kinetic surface plasmon resonance measurement as previously described. Briefly, a biotinylated peptide (692-NLEPFAGLTPEYMEM-706) was immobilized on a SA chip or custom streptavidin-coated CM5 sensor chip (GE Healthcare), with one flow cell with biotin alone as a reference cell. For the binding assay, HEPES-buffered saline containing 0.005 % of Tween 20 was used as a running buffer. Various concentrations of the reference helix peptide (aa 651–671) were injected for 120 s and dissociated for 240 s at a flow rate of 20 μL/min. Binding curves were analyzed using BIAevaluation 3.1."}, "ANO1 [3]": {"tested_on": "ANO1", "assay": "Block of Ca^2+-induced ANO1 currents by helix peptides, inside-out patches", "type": "cell-based, mouse", "conditions": "3 μM Ca^2+, E h = +80 mV", "experimental": "Fig. 4 The reference helix of the ICL3 region interacts with the Ca^2+ sensor helix in a Ca^2+-dependent way. a, b Physical interaction between the reference and Ca^2+ sensor helices was assessed with a surface plasmon resonance assay. Biotinylated Ca^2+ sensor helix peptide (692-NLEPFAGLTPEYMEM-706) was immobilized on a streptavidin-coated gold sensor chip. Resonance intensities were measured after solutions containing 0, 0.4, and 2.0 mM Ca^2+ and various concentrations of reference helix peptide (651-[…]-671) (a) or its Ala-substituted mutants (651-[…]-671) (b) were flowed through the gold chip. […] Ca^2+ (3 μM) was applied three times to inside-out patches of ANO1-transfected HEK cells. At the second Ca^2+ challenge, the peptides were also given. […] Current amplitudes were normalized to the current amplitude obtained after of the first Ca^2+ challenge. At the second Ca^2+ challenge, reference helix peptide (black circle, **p < 0.01 compared to the relative response of vehicle application, one-way ANOVA, Newman-Keuls post hoc test, n = 13), Ala-replaced reference helix peptide (black inverted triangle, n = 8), the Ca^2+ sensor helix peptide (700-TPEYMEMIIQFGF-712) (black square, **p < 0.01 compared to the relative response of vehicle application, one-way ANOVA, Newman-Keuls post hoc test, n = 7), and vehicle (white circle, n = 8) were also applied […]\n(§1) Borosilicate glass pipettes (World Precision Instruments, Sarasota, FL) with tip resistances of ~2 Mohms were used to form gigaseals on HEK cells. […] Currents were recorded with a patch-clamp amplifier (Axopatch 200B, […]) with a 1-KHz filter. […]\n(§2) The control pipette solution contained 140 mM N-methyl D-glucamine, 2 mM MgCl2, and 10 mM HEPES adjusted to pH 7.2 with HCl. […] The bath solution contained (in mM) 140 N-methyl D-glucamine, 2 MgCl2, 10 HEPES, 10 chelator (EGTA, N(2-hydroxyethyl) ethylenediamine triacetic acid (HEDTA), or nitrilotriacetic acid (NTA)), and a calculated amount of CaCl2 (adjusted with HCl to pH 7.2). […] Free Ca^2+ less than 30 μM in each solution was monitored with Fura-2 fluorometry."}, "ANO1 [4]": {"tested_on": "ANO1", "assay": "Inhibition of Eact-activated ANO1 currents by helix peptides, inside-out patches", "type": "cell-based, mouse", "conditions": "n = 5", "experimental": "Fig. 6 Eact, a synthetic agonist of ANO1 acts on the ICL3 region. a Example traces depicting activation by Eact of WT ANO1 (upper left), 444-EEEEE-448 (Δ5E, upper right), ΔICL3 (lower left), and 659-QMQQFIAYLQ-668 mutant (lower right). b Example traces of Eact-induced ANO1 currents, which were blocked by bath application of the reference helix peptide (Ref helix peptide, 651-[…]-671, 4 μM, lower panel) but not by the Ca^2+ sensor helix peptide (CSH peptide, 700-TPEYMEMIIQFGF-712, 10 μM, middle panel). To test the effects of peptide, 1 μM Eact was applied three times. At the second Eact challenge, each peptide was also applied. c A summary of the effects of applications of helix peptides on Eact-induced ANO1 currents. Current amplitudes were normalized to the current amplitude obtained after of the first Eact challenge. Reference helix peptide (black square, n = 5), its Ala-mutant peptide (black inverted triangle, n = 5), Ca^2+ sensor helix peptide (black triangle, n = 5), or vehicle (white circle, n = 14) was applied at the second Eact challenge. *p < 0.05 compared to the relative response of vehicle application, one-way ANOVA followed by Newman-Keuls post hoc test\nWe then applied the two helix peptides to see if these peptides compete with Eact in activating ANO1.\nAll mutants were generated from the wild-type construct, mouse ANO1 (pEGFP-N1-mANO1). […]\nas §1, §2"}, "ANO1 [5]": {"tested_on": "ANO1", "assay": "Eact activation of ANO1, inside-out patches", "type": "cell-based, mouse", "conditions": "1 μM Eact to bath of inside-out patch", "experimental": "(§3) Eact, a synthetic agonist of ANO1, was synthesized for the purpose of treating cystic fibrosis in an attempt to bypass dysfunctioning CFTR channel. Even though Eact was known to activate ANO1, the activation mechanism is not known. We therefore hypothesized that Eact also acts on the ICL3 region.\n(§4) All mutants were generated from the wild-type construct, mouse ANO1 (pEGFP-N1-mANO1). Amino acid substitution or deletion mutants were prepared using a site-directed mutagenesis kit (Muta-direct, iNtRON Biotech) or by using the overlap PCR method. Mutations in all mutants were confirmed by sequencing whole nucleotide sequences. […]\nas §1, §2"}, "Δ5E ANO1 mutant": {"tested_on": "Δ5E ANO1 mutant", "assay": "Eact activation of Δ5E ANO1 mutant, inside-out patches", "type": "cell-based, mouse", "conditions": "maximal Eact (10 μM)", "experimental": "as §3, §4, §1, §2"}, "[6]": {"tested_on": "ANO1 285-AGAYAGA-291 mutant", "assay": "Eact activation of ANO1 EF-hand-like region mutant", "type": "cell-based, mouse", "conditions": "data not shown", "experimental": "as §3, §4, §1, §2"}, "[7]": {"tested_on": "ΔICL3, the deletion mutant of ANO1 in the ICL3 region", "assay": "Eact activation of ΔICL3 ANO1 mutant", "type": "cell-based, mouse", "experimental": "as §3, §4, §1, §2"}, "ANO1 QYMQ mutant": {"tested_on": "ANO1 QYMQ mutant", "assay": "Eact activation of ANO1 Ca^2+ sensor helix mutant", "type": "cell-based, mouse", "conditions": "data not shown", "experimental": "as §3, §4, §1, §2"}, "[8]": {"tested_on": "ANO1 659-QMQQFIAYLQ-668 mutant", "assay": "Eact activation of ANO1 reference helix mutant", "type": "cell-based, mouse", "experimental": "as §3, §4, §1, §2"}, "[9]": {"molecular_target": "T1, Ca2+ sensor helix peptide of ANO1 (692-NLEPFAGLTPEYMEM-706), biotinylated (mouse)", "T1 construct": "Anoctamin 1 (ANO1/TMEM16A), mouse, residues 692-706, Ca2+ sensor helix of the third intracellular loop (ICL3); Held on the streptavidin chip by its N-terminal biotin; also called biotinylated Ca2+ sensor helix peptide; source: synthetic peptide", "T1 peptide": "Biotin-NLEPFAGLTPEYMEM", "assay": "SPR; Biacore 3000; biotinylated Ca2+ sensor helix peptide immobilised on an SA chip or custom streptavidin-coated CM5 chip, reference cell with biotin alone; HEPES-buffered saline with 0.005 % Tween 20; various concentrations of reference helix peptide injected for 120 s, dissociation 240 s, 20 uL/min; solutions with 0, 0.4 and 2.0 mM Ca2+ (Ca2+ reduced the interaction dose-dependently)", "conditions": "both partners purified"}},
  "note": "Where no end group is shown, it is not given here. The star is where a group is joined. Biotin = O=C1N[C@H]2[C@H](CS[C@H]2CCCCC(=O)*)N1",
  "data": [
    {"molecule": "604-IFEIGVPKLKKLFRKLKD-621", "values": [
      {"measurement": "circular dichroism spectrum", "setting": "[1]", "result": "typical circular dichroism spectrum of an α-helix with a positive band around 192 nm and negative bands around 208 and 222 nm"}
    ]},
    {"molecule": "651-NLFEIGIPAMAAFIAYLALAA-671 [Ala-mutant reference helix peptide]", "values": [
      {"measurement": "interaction with Ca^2+ sensor helix peptide", "setting": "[2]; regardless of Ca^2+ concentration (0, 0.4 and 2.0 mM)", "result": "failed to show any interaction"},
      {"measurement": "effect on Ca^2+-induced ANO1 currents", "setting": "ANO1 [3]; 4 μM Ala-mutant peptide, n = 8", "result": "failed to block"},
      {"measurement": "effect on Eact-activated ANO1 currents", "setting": "ANO1 [4]; Ala-substituted peptide with 1 μM Eact", "result": "failed to inhibit"}
    ]},
    {"molecule": "651-NLFEIGIPKMKKFIRYLKLRR-671 [reference helix peptide]", "values": [
      {"measurement": "interaction with Ca^2+ sensor helix peptide", "setting": "[2]; absence of Ca^2+, Biacore 3000, HEPES-buffered saline, 0.005 % Tween 20, 20 μL/min, 120 s injection, 240 s dissociation", "result": "interacted strongly with the Ca^2+ sensor helix"},
      {"measurement": "effect on Ca^2+-induced ANO1 currents", "setting": "ANO1 [3]; 4 μM peptide, p < 0.01 vs vehicle, one-way ANOVA, Newman-Keuls, n = 13", "result": "markedly blocked"},
      {"measurement": "effect on Eact-activated ANO1 currents", "setting": "ANO1 [4]; 4 μM peptide with 1 μM Eact, p < 0.05 vs vehicle, one-way ANOVA, Newman-Keuls", "result": "significantly inhibited"}
    ]},
    {"molecule": "652-LFEIGIPKMKKFIRYLKL-669", "values": [
      {"measurement": "circular dichroism spectrum", "setting": "[1]", "result": "typical circular dichroism spectrum of an α-helix with a positive band around 192 nm and negative bands around 208 and 222 nm"}
    ]},
    {"molecule": "700-TPEYMEMIIQFGF-712 [Ca^2+ sensor helix peptide, Ca^2+ sensor helix peptide (700-…-712)]", "values": [
      {"measurement": "effect on Ca^2+-induced ANO1 currents", "setting": "ANO1 [3]; 10 μM peptide, p < 0.01 vs vehicle, one-way ANOVA, Newman-Keuls, n = 7", "result": "markedly blocked"},
      {"measurement": "effect on Eact-activated ANO1 currents", "setting": "ANO1 [4]; 10 μM peptide with 1 μM Eact", "result": "failed to inhibit"}
    ]},
    {"molecule": "COCCN(C(=O)c1cc(OC)c(OC)c(OC)c1)c1nc(-c2ccccc2)cs1", "note": "[Eact]", "values": [
      {"measurement": "activation of ANO1 by Eact", "setting": "ANO1 [5]", "result": "activated ANO1"},
      {"measurement": "activation by Eact", "setting": "Δ5E ANO1 mutant", "result": "activated the Δ5E ANO1 mutant"},
      {"measurement": "activation by Eact", "setting": "[6]", "result": "activated 285-AGAYAGA-291 mutant"},
      {"measurement": "activation by Eact", "setting": "[7]", "result": "failed to activate"},
      {"measurement": "activation by Eact", "setting": "ANO1 QYMQ mutant", "result": "failed to activate"},
      {"measurement": "activation by Eact", "setting": "[8]", "result": "failed to activate"}
    ]},
    {"molecule": "B1", "values": [
      {"measurement": "binding result", "setting": "[9]", "result": "binds"}
    ]}
  ]
}
